Reference: patent US9861679B2, “Method of treating cancer” (priority 2014, dated 2018)

Experiments:
[1] = test system: Bone Marrow Derived Macrophages (BMDM); assay: BMDM cell viability (CellTiter-Glo) after SMAC mimetic Compound A ± p38 or MK2 inhibitor; type: cell-based, mouse; details: inhibitor 30 min then 500 nM Compound A, 24 h, FIG. 1C
Description: FIG. 1: p38 inhibitors increase TNFα production and cell death induced by SMAC mimetics. A. Bone Marrow Derived Macrophages (BMDM) were pretreated ±1 μM of the indicated p38 inhibitors for 30 min then treated with 500 nM of SMAC mimetic Compound A (CompA) for 24 h. TNFα production was measured by ELISA of supernatants. B. BMDM were pretreated 500 nM of SMAC mimetic Compound A, GT13072 or birinapant ±1 μM of LY2228820. TNFα production was measured by ELISA of supernatants. N=3 biological repeats and error bars are SEM. C. BMDM were pretreated±the indicated dose of MK2 inhibitor PF-3644022 and the p38 inhibitor LY2228820, VX-702, TAK-715 or VX-745 for 30 min then treated with 500 nM of SMAC mimetic Compound A. Cell viability was measured after 24 h of treatment using CellTiter-Glo® (CTG) reagent. N=3 biological repeats and error bars are SEM.
BMDMs from C56/B16, p38α^LysMCre or Mk2^−/− were cultured for 6 days in DMEM+10% FBS (v/v)+20% L929 mouse fibroblasts (a source of macrophage colony stimulating factor), plated and assayed the following day. BMDMs cells were seeded and assayed in the presence of L929 conditioned medium. AML cells were cultured in IMDM+10% FBS (v/v)+2.5 ng/ml of IL-3. NCI-H929 cells were cultured in RPMI+10% FBS (v/v). Cell suspension from breast ER+ patient derived tumours was cultured in mammosphere media. After treatment with SMAC mimetic with or without kinases inhibitors cell viability was measured by staining with propidium iodide (2 μg/mL) or by using CellTiter-Glo® (Promega).

[2] = test system: low- and intermediate-1-risk Myelodysplastic syndromes; details: cited from earlier work
[3] = test system: advanced solid tumours and lymphoma; details: intravenous administration, Phase I, patients; cited from earlier work
[4] = test system: human AML patient samples; assay: In vitro response of human AML patient samples to Birinapant; type: cell-based; details: single agent
[5] = test system: MLL-ENL-luciferase leukemic cells; assay: Anti-tumour efficacy in mice bearing MLL-ENL-luciferase leukemia; type: in vivo, mouse; details: mice bearing MLLENL-Luc, after one week of treatment; birinapant 5 mg/kg, LY2228820 10 mg/kg i.p. twice a week; FIG. 8A
Description: FIG. 8: Combination of birinapant with p38 inhibitor decreases AML tumor burden. Mice bearing MLLENL-luciferase (A and B) or MLL-AF9 (C) leukemic cells received i.p injections of birinapant (5 mg/kg), LY2228820 (10 mg/kg) or the combined drugs twice a week for 4 weeks. A. Representative data of in vivo imaging of leukaemia progression in mice bearing MLL-ENL-luciferase. B. Kaplan-Meier survival curve of mice bearing MLL-ENL-luciferase and treated or not with birinapant, LY222820 or combined therapy. C. Kaplan-Meier survival curve of mice bearing MLL-AF9 and treated or not with birinapant, LY222820 or combined therapy.
To assess the anti-tumour efficacy of SMAC mimetic plus p38 inhibitor C57BL6 Albinos mice were injected by intra-venous route with 5·10^5 MLLENLluc. Luciferase activity was measured at D4 and D8 after leukemic cells injection to ensure engraftment. Treatment started at D8. Mice were treated twice a week for 4 weeks with either vehicle (6% Captisol), 5 mg/kg of Birinapant, or 10 mg/kg of LY222820 or combination. Mice were monitored for leukemia progression once a week using the in vivo bioluminescent imaging. […]
To assess the therapeutic efficacy of the combination multiple primary MLL-ENL and MLL-AF9 leukemias were transplanted and the secondary recipient mice were treated with the different drugs. […] The engraftment and trafficking were evaluated by in vivo bioluminescent imaging. […]

C57BL/6 mice = assay: Tolerability of SMAC mimetic plus p38 inhibitor in non tumour-bearing mice; type: in vivo; details: LY2228820 15 mg/kg combined with GT13072 5 mg/kg; FIG. 7C
Description: FIG. 7: Mice tolerate administration of birinapant plus p38 inhibitor. A. Mononuclear cells isolated from healthy donor by Ficoll sedimentation were treated for 48 h with indicated drugs. CD34^+ cell death was measured by staining with PI and flow cytometry. For each donor sample, graphs show mean of at least n=2 technical replicates across n=2-5 independent experiments. B and C. C57BL/6 mice were intra-peritoneally injected with vehicle (captisol 6%) or birinapant (B) or GT13072 (C) or LY2228820 or combination of LY2228820 and SM at indicated concentration. Mice received 8 injections twice a week over 4 weeks. Mice were euthanised 2 weeks after the treatment stopped. Graphs show organs, body weights and blood cell populations with 6 mice/group (B), 4 mice/group (C). Error bars are SEM.
To assess the safety of SMAC mimetic plus p38 inhibitor C57BL6 mice were injected by intra-peritoneal route twice a week for 4 weeks with either vehicle (6% Captisol) or 15 mg/kg of LY222820 or 5 mg/kg birinapant±15 mg/kg LY2228820, or 10 mg/kg birinapant±15 mg/kg LY2228820. Another cohort received either vehicle or 5 mg/kg of GT13072, or 15 mg/kg of LY222820 or combination.
200 μL of blood was collected from the retro-orbital plexus into tubes containing potassium ethylenediaminetetraacetic acid (Sarstedt) and analyzed in an Advia 2120 automated hematologic analyzer (Bayer).

[6] = test system: Bone Marrow Derived Macrophages (BMDM); assay: TNFα production by ELISA in BMDM treated with SMAC mimetic ± p38 inhibitors (kinase inhibitors screen); type: cell-based, mouse; details: 500 nM CompA, GT13072 or birinapant ± 1 μM LY2228820, FIG. 1B
Description: FIG. 1: p38 inhibitors increase TNFα production and cell death induced by SMAC mimetics. A. Bone Marrow Derived Macrophages (BMDM) were pretreated ±1 μM of the indicated p38 inhibitors for 30 min then treated with 500 nM of SMAC mimetic Compound A (CompA) for 24 h. TNFα production was measured by ELISA of supernatants. B. BMDM were pretreated 500 nM of SMAC mimetic Compound A, GT13072 or birinapant ±1 μM of LY2228820. TNFα production was measured by ELISA of supernatants. N=3 biological repeats and error bars are SEM. C. BMDM were pretreated±the indicated dose of MK2 inhibitor PF-3644022 and the p38 inhibitor LY2228820, VX-702, TAK-715 or VX-745 for 30 min then treated with 500 nM of SMAC mimetic Compound A. Cell viability was measured after 24 h of treatment using CellTiter-Glo® (CTG) reagent. N=3 biological repeats and error bars are SEM. BMDMs from C56/B16, p38α^LysMCre or Mk2^−/− were cultured for 6 days in DMEM+10% FBS (v/v)+20% L929 mouse fibroblasts (a source of macrophage colony stimulating factor), plated and assayed the following day. BMDMs cells were seeded and assayed in the presence of L929 conditioned medium. AML cells were cultured in IMDM+10% FBS (v/v)+2.5 ng/ml of IL-3. […] After treatment with SMAC mimetic with or without kinases inhibitors cell viability was measured by staining with propidium iodide (2 μg/mL) or by using CellTiter-Glo® (Promega). […]

[7] = oral administration, Phase I/II, patients

Compound: O=c1ncn2nc(Sc3ccc(F)cc3F)ccc2c1-c1c(Cl)cccc1Cl [VX-745]
- cell death induced by SMAC mimetics [1]: dramatically increased

Compound: C[C@@H]1CN(Cc2ccc(F)cc2)[C@@H](C)CN1C(=O)c1cc2c(C(=O)C(=O)N(C)C)cn(C)c2cc1Cl [Talmapimod]
- complete remission [2, 7]: only one patient achieved a complete remission
- tolerability [2, 7]: well tolerated
- duration of complete remission ([2]; the one patient with complete remission): more than 2 years

Compound: CC[C@H](NC(=O)[C@H](C)NC)C(=O)N1C[C@@H](O)C[C@H]1Cc1c(-c2[nH]c3cc(F)ccc3c2C[C@@H]2C[C@H](O)CN2C(=O)[C@H](CC)NC(=O)[C@H](C)NC)[nH]c2cc(F)ccc12 [Birinapant]
- anti-tumour activity [3]: evidence of anti-tumour activity
- tolerability [3]: well tolerated with no dose-limiting toxicities
- response to Birinapant treatment in vitro [4]: some human AML patient samples did not respond
- response to treatment (bioluminescent imaging) [5]: did not

Compound: CC(C)(C)Cn1c(N)nc2ccc(-c3[nH]c(C(C)(C)C)nc3-c3ccc(F)cc3)nc21 [LY2228820]
- cell death induced by SMAC mimetics [1]: dramatically increased
- effect on splenomegaly induced by GT13072 (C57BL/6 mice): did not even exacerbate
- TNF production of three different smac-mimetics [6]: increased TNF production

Compound: Cc1ccc(-c2ccc3c(ccc4sc5c(c43)NC[C@@H](C)NC5=O)n2)cn1 [PF-3644022]
- cell death induced by SMAC mimetics [1]: dramatically increased

Compound: CCc1nc(-c2cccc(C)c2)c(-c2ccnc(NC(=O)c3ccccc3)c2)s1 [TAK-715]
- cell death induced by SMAC mimetics [1]: dramatically increased

Compound: NC(=O)c1ccc(N(C(N)=O)c2c(F)cccc2F)nc1-c1ccc(F)cc1F [VX-702]
- cell death induced by SMAC mimetics [1]: dramatically increased
